Source: PubChem BioAssay (NCI)
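These data come from cells grown in 96-well plates and exposed to compound for 48 hours at five concentrations. TGI marks complete inhibition of growth.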

How the values were obtained:
Assay in all cases: NCI-60 cell line screen, 48 h
CCRF-CEM leukemia = tested on: CCRF-CEM leukemia
ACHN renal = tested on: ACHN renal
MDA-MB-231 breast = tested on: MDA-MB-231 breast
SR leukemia = tested on: SR leukemia
SK-MEL-5 melanoma = tested on: SK-MEL-5 melanoma
LOX IMVI melanoma = tested on: LOX IMVI melanoma
MCF7 breast = tested on: MCF7 breast
SNB-19 CNS = tested on: SNB-19 CNS
OVCAR-3 ovarian = tested on: OVCAR-3 ovarian
HOP-92 NSCLC = tested on: HOP-92 NSCLC

Row | SMILES | TGI (CCRF-CEM leukemia) | TGI (ACHN renal) | TGI (MDA-MB-231 breast) | TGI (SR leukemia) | TGI (SK-MEL-5 melanoma) | TGI (LOX IMVI melanoma) | TGI (MCF7 breast) | TGI (SNB-19 CNS) | TGI (OVCAR-3 ovarian) | TGI (HOP-92 NSCLC)
1 | CN(C1=NCCO1)c1cccc2ccccc12 | > 10 µM | > 10 µM | > 10 µM | > 10 µM | > 10 µM | > 10 µM | > 10 µM | > 10 µM | > 10 µM | –
2 | O=C1C=CC(=O)c2c1ccc1c3ccccc3n(-c3ccccn3)c21 | > 100 µM | 35.6 µM | – | – | – | – | – | – | 63.8 µM | 29.9 µM
3 | CCC1(C)C=Cc2c(cc(OC)c3c(=O)c4ccccc4n(C)c23)O1 (stereo unspecified) | > 10 µM | > 10 µM | > 10 µM | – | > 10 µM | > 10 µM | > 10 µM | > 10 µM | > 10 µM | > 10 µM
4 | CC(C)=CCC[C@]1(C)CC[C@]2(C)C3CCC(=C(C)C)[C@@H](CCCO)[C@]3(C)CC[C@@]2(C)C1 (stereo partly specified) | > 100 µM | > 100 µM | > 100 µM | – | > 100 µM | – | 67.5 µM | > 100 µM | > 100 µM | –
5 | CCOC(=O)c1c(C)n(Cc2ccccc2)c(=O)c2ccccc2c(=O)c2c(=O)ccc(=O)c1=2 | > 100 µM | 77.1 µM | > 100 µM | > 100 µM | > 100 µM | 53.5 µM | – | > 100 µM | > 100 µM | 41.5 µM
6 | CCOC(=O)c1cc2cc(N(C(C)=O)C(C)=O)ccc2s1 | > 100 µM | 62.3 µM | 58.7 µM | – | 65 µM | > 100 µM | > 100 µM | > 100 µM | > 100 µM | > 100 µM
7 | NCc1ccc(-c2ccc(-c3ccc(-c4ccc(CN)s4)s3)s2)s1 | > 100 µM | > 100 µM | > 100 µM | – | > 100 µM | > 100 µM | > 100 µM | > 100 µM | > 100 µM | > 100 µM
8 | CCOC(=O)CC(=O)NC1CC2CCC1(C)C2(C)C (stereo unspecified) | > 100 µM | > 100 µM | > 100 µM | > 100 µM | > 100 µM | > 100 µM | > 100 µM | > 100 µM | > 100 µM | –
9 | COc1c(CC=C(C)C)c(O)c(C(CC(C)C)c2c(O)c(C(C)=O)c(O)c3c2OC(C(C)(C)O)C3)c(O)c1C(C)=O (stereo unspecified) | > 12.5 µM | > 12.5 µM | – | 10.4 µM | 8.24 µM | > 12.5 µM | > 12.5 µM | > 12.5 µM | > 12.5 µM | 5.21 µM
10 | C[C@]12CC[C@@H]3c4ccc(O)cc4CC[C@H]3[C@@H]1C/C(=C\c1ccc([N+](=O)[O-])cc1)C2=O | > 100 µM | > 100 µM | > 100 µM | > 100 µM | > 100 µM | > 100 µM | > 100 µM | > 100 µM | > 100 µM | –
11 | C=C(O)c1ccccc1C#Cc1ccccc1C(=O)OC | > 10 µM | > 10 µM | > 10 µM | > 10 µM | > 10 µM | > 10 µM | > 10 µM | > 10 µM | > 10 µM | –
12 | CC(=O)ON(OC(C)=O)c1ccc(C)cc1 | – | > 100 µM | > 100 µM | – | > 100 µM | – | > 100 µM | > 100 µM | > 100 µM | > 100 µM
13 | Cn1c(=O)oc2cc(C(=O)CSC(=S)N3CCCCCC3)ccc21 | > 100 µM | > 100 µM | > 100 µM | > 100 µM | > 100 µM | – | > 100 µM | > 100 µM | > 100 µM | > 100 µM
14 | S=c1[nH]nc(COc2ccc3c(c2)CCCC3)n1/N=C/c1ccc(Cl)cc1 | 55.8 µM | 36 µM | 44.9 µM | – | 29.3 µM | 37 µM | 27.9 µM | 40 µM | 30.7 µM | 32.9 µM
15 | CC(=O)N=C(N=Nc1c(O)[nH]c2ccc(C)cc12)NC(C)=O | > 100 µM | > 100 µM | > 100 µM | > 100 µM | > 100 µM | > 100 µM | > 100 µM | > 100 µM | – | > 100 µM
16 | COC(CN(C)C(=O)C(C)NC(=O)c1ccccc1)OC (stereo unspecified) | > 100 µM | > 100 µM | > 100 µM | > 100 µM | > 100 µM | – | > 100 µM | – | – | > 100 µM
17 | c1ccc2c(c1)ccc1nc(-c3ccc4c(c3)OCO4)c3c(c12)CCCC3 | > 100 µM | > 100 µM | 44.3 µM | – | – | – | > 100 µM | > 100 µM | > 100 µM | –
18 | Cc1c(N2C(=O)/C(=C/C=C/c3ccccc3)N=C2c2ccccc2)c(=O)n(-c2ccccc2)n1C | 99.2 µM | 34.1 µM | 47.3 µM | 47.1 µM | 30.8 µM | 52 µM | > 100 µM | – | 46.6 µM | 51.3 µM
19 | CC1C(c2ccc(F)cc2)c2cc3c(cc2OC1N1CCCC1)OCO3 (stereo unspecified) | > 100 µM | > 100 µM | – | > 100 µM | > 100 µM | > 100 µM | > 100 µM | > 100 µM | > 100 µM | 45.7 µM
20 | Cc1ccc(-c2c(C#N)c(-c3ccc(Cl)cc3)c(C#N)c(=O)n2NS(=O)(=O)c2ccccc2)cc1 | > 100 µM | > 100 µM | > 100 µM | – | > 100 µM | > 100 µM | > 100 µM | > 100 µM | – | > 100 µM
21 | CCOC(=O)/C(C#N)=C/c1ccc2c(-c3c(OCC)ccc4cc(/C=C(\C#N)C(=O)OCC)ccc34)c(OCC)ccc2c1 | > 100 µM | > 100 µM | 56.1 µM | – | > 100 µM | > 100 µM | > 100 µM | > 100 µM | > 100 µM | > 100 µM
22 | O=C(Cn1c(=O)ccn(C2OC(CO)C(O)C2F)c1=O)c1ccc(F)cc1 (stereo unspecified) | > 100 µM | > 100 µM | > 100 µM | – | > 100 µM | > 100 µM | > 100 µM | > 100 µM | > 100 µM | –
23 | Cc1cc(-c2ccc(C(=O)O)[nH]2)on1 | – | > 100 µM | > 100 µM | – | > 100 µM | – | > 100 µM | > 100 µM | > 100 µM | > 100 µM
24 | CCCC1NC(=O)C(CC(C)C)NC(=O)c2cccc(n2)C(=O)NC(CC(C)C)C(=O)NC(CCC)C(=O)NC(C(=O)OC)CCCCNC1=O (stereo unspecified) | 36.6 µM | – | 48.9 µM | 65.6 µM | > 100 µM | 44.4 µM | > 100 µM | > 100 µM | > 100 µM | 65.9 µM
25 | CC/C(=N\NC(=O)c1cccnc1)c1ccc2c(c1)OCCO2 | > 100 µM | > 100 µM | > 100 µM | – | > 100 µM | > 100 µM | > 100 µM | > 100 µM | > 100 µM | –
